Measured values reported in patent US20220296595A1, “CDK INHIBITORS” (QILU REGOR THERAPEUTICS INC., priority 2019, published 2022).

Key:
T47D breast cancer cells = test: Anti-proliferation assay in T47D cell (Cyquant, day 6); assay type: cell-based, human; details: Homo sapiens, T47D, anti-proliferation, T47D cells; read-out: T47D IC50
Excerpt: T47D is a human breast cancer cell line commonly used in biomedical research involving the hormonal expression of cancer cells. T47D cells are distinct from other human breast cancer cells in that their progesterone receptors (PR) are not regulated by estradiol, a hormone that is abundant within the cells themselves. T47D cells have been employed in studies of the effects of progesterone on breast cancer and the corresponding transcriptional regulation caused by introduced drugs. The cells have been noted to be extremely resistant to estrogens and antiestrogens.
T47D breast cancer cells from American Type Culture Collection (ATCC, HTB-133) were plated at 3000 cells/well in 96-well plates, and were incubated in RPMI 1640 medium (Gibco, 31800105) with 10% Fetal Bovine Serum (FBS, Biowest, FB-1058) at 37° C., 5% CO2. After overnight incubation, baseline values were measured of the samples from one plate using Cyquant reagent (Invitrogen, C35011) following manufacturer's recommendations. Cells were incubated with the detection reagent for 1 hour at 37° C., and then the fluorescence was measured with excitation at 485 nm and emission at 535 nm using Spectra Max M5 (Molecular Devices, HD-4HYSG3196). Other plates were dosed with compounds at a ten-point dose concentration from 10 μM to 0.51 nM in a 3-fold dilution scheme. On day 6 after compound addition, Cyquant reagent was added and the fluorescence was measured using Spectra Max M5. The IC50 values of the test compound's anti-proliferation activity were determined from the baseline subtracted viability readout curve using Xlfit5/GraphPad Prism 5 software.

CDK2/CyclinE1 = biological target: T1, CDK2/CyclinE1 (Homo sapiens, UniProt P24941); test: Assay for inhibition of CDK2/CyclinE1 (Caliper microfluidic kinase assay); assay type: biochemical; details: CDK2/CyclinE1, 100 μM ATP; read-out: CDK2 IC50
T1 construct: purchased SignalChem C29-18G
Method: The CDK2 enzyme assay for IC50 determination was performed as follows. Microfluidic kinase detection technology (Caliper) was used to monitor the phosphorylation of peptide substrate by CDK2/CyclinE1. The total reaction volume was 15 μL containing buffer A (100 mM HEPES (pH 7.5), 0.1% BSA, 0.01% Triton X-100, 1 mM DTT, 10 mM MgCl2, 10 μM Sodium Orthovanadate, 10 μM Beta-Glycerophosphate), 100 μM ATP, 5 nM CDK2/CyclinE1 (SignalChem, C29-18G), 5 μM FL-18 (5-FAM-QSPKKG-NH2), and the test compound at appropriate dilutions in DMSO. All components were added to the 384-well plate (Corning, 4514), and incubate at Room Temperature for 3 hours. The reaction was terminated by addition of 15 μL Stop Buffer (180 mM HEPES (pH 7.5), 20 mM EDTA, Coating-3 reagent (PerkinElmer, 760050)). The plate was loaded on Caliper EZ Reader (EZ Reader II, PerkinElmer, HD-4HYSG2772), and the reaction mixtures including substrate and product were sipped into the microfluidic chip for separation and detection. The IC50 values of the test compound were determined by fitting the inhibition curves by 4 parameter sigmoidal dose-response model using the Xlfit5/GraphPad Prism 5 software.

CDK4/CyclinD1 = biological target: T2, CDK4/CyclinD1 (Homo sapiens, UniProt P11802); test: Assay for inhibition of CDK4/CyclinD1 (Caliper microfluidic kinase assay); assay type: biochemical; details: CDK4/CyclinD1, 200 μM ATP
T2 construct: purchased Thermofisher PR8064A
Method: The CDK4 enzyme assay for IC50 determination was performed as follows. Microfluidic kinase detection technology (Caliper) was used to monitor the phosphorylation of peptide substrate by CDK4/CyclinD1. The total reaction volume was 15 μL containing buffer A (100 mM HEPES (pH 7.5), 0.1% BSA, 0.01% Triton X-100, 1 mM DTT, 10 mM MgCl2, 10 μM Sodium Orthovanadate, 10 μM Beta-Glycerophosphate), 200 μM ATP, 1 nM CDK4/CyclinD1 (Thermofisher, PR8064A), 1 μM FL-34 (5-FAM-[…]), and the test compound at appropriate dilutions in DMSO. All components were added to the 384-well plate (Corning, 4514), and incubated at Room Temperature for 3 hours. The reaction was terminated by addition of 15 μL Stop Buffer (180 mM HEPES (pH 7.5), 20 mM EDTA, Coating-3 reagent (PerkinElmer, 760050)). The plate was then loaded on Caliper EZ Reader (EZ Reader II, PerkinElmer, HD-4HYSG2772), and the reaction mixtures including substrate and product were sipped into the microfluidic chip for separation and detection. The IC50 values of the test compound were determined by fitting the inhibition curves by 4 parameter sigmoidal dose-response model using the Xlfit5/GraphPad Prism 5 software.

T2 sequence (P11802 whole entry): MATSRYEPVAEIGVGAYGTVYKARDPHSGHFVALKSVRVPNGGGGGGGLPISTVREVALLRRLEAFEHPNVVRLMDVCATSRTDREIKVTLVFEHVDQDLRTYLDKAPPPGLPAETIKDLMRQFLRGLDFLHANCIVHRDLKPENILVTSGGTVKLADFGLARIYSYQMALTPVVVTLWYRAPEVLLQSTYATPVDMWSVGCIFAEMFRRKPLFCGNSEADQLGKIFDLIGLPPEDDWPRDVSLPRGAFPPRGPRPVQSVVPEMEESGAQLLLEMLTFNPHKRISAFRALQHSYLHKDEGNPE
T2 sequence (P24385 whole entry partner): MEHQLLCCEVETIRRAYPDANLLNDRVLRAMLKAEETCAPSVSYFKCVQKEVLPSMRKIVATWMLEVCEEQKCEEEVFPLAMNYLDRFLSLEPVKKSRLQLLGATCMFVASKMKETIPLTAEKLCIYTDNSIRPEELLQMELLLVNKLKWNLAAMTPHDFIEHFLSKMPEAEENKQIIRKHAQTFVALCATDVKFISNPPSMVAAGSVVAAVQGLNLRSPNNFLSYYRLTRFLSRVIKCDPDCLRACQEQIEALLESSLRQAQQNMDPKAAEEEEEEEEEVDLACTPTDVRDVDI

**Q.** For `CC(C)c1cnn2ccc(-c3ccnc(Nc4ccc(N5CCC(NCCF)CC5=O)cn4)n3)cc12` (stereo not drawn) [compound 201], which IC50 (T47D breast cancer cells) is on record?
**A.** < 100 nM

**Q.** And the IC50 (CDK2/CyclinE1)?
**A.** < 10 nM

**Q.** And the IC50 (CDK4/CyclinD1)?
**A.** < 10 nM

**Q.** How did the IC50 (T47D breast cancer cells) turn out when `CNC1CCCN(c2ccc(Nc3nccc(-c4ccn5ncc(C(C)C)c5c4)n3)nc2)C1=O` (stereo not drawn) [compound 208] was run?
**A.** < 100 nM

**Q.** And the IC50 (CDK2/CyclinE1)?
**A.** 100 to 1000 nM

**Q.** What about the IC50 (CDK4/CyclinD1) of the same molecule?
**A.** < 10 nM

**Q.** With `CC(C)c1cnn2ccc(-c3ccnc(Nc4ccc(N5C(=O)C6CC5CN6)cn4)n3)cc12` (stereo not drawn) [compound 210] as the molecule, how does the IC50 (T47D breast cancer cells) read?
**A.** > 1000 nM

**Q.** What about the IC50 (CDK2/CyclinE1) of the same molecule?
**A.** 10 to 100 nM

**Q.** And the IC50 (CDK4/CyclinD1)?
**A.** < 10 nM

**Q.** For `CC(C)(C)c1cnn2ccc(-c3ccnc(Nc4ccc(N5C(=O)C6CC5CN6)cn4)n3)cc12` (stereo not drawn) [compound 211], which IC50 (T47D breast cancer cells) is on record?
**A.** 500 to 1000 nM

**Q.** And the IC50 (CDK2/CyclinE1)?
**A.** < 10 nM

**Q.** And the IC50 (CDK4/CyclinD1)?
**A.** < 10 nM

**Q.** How did the IC50 (T47D breast cancer cells) turn out when `Cc1nn2ccc(-c3ccnc(Nc4ccc(N5CCCC(N)C5=O)cc4)n3)cc2c1C(C)C` (stereo not drawn) [compound 216] was run?
**A.** < 100 nM

**Q.** And the IC50 (CDK2/CyclinE1)?
**A.** 10 to 100 nM

**Q.** And the IC50 (CDK4/CyclinD1)?
**A.** < 10 nM

**Q.** What does the source list for `CC1(N)CCN(c2ccc(Nc3nccc(-c4ccn5ncc(C(C)(C)C)c5c4)n3)nc2)C(=O)C1` (stereo not drawn) [compound 219]?
**A.** IC50 (T47D breast cancer cells): < 100 nM; IC50 (CDK2/CyclinE1): < 10 nM; IC50 (CDK4/CyclinD1): < 10 nM

**Q.** How did the IC50 (T47D breast cancer cells) turn out when `CC(C)(C)c1cnn2ccc(-c3ccnc(Nc4ccc(N5CCCC(N)C5=O)cn4)n3)cc12` (stereo not drawn) [compound 220] was run?
**A.** < 100 nM

**Q.** What about the IC50 (CDK2/CyclinE1) of the same molecule?
**A.** 10 to 100 nM

**Q.** And the IC50 (CDK4/CyclinD1)?
**A.** < 10 nM

**Q.** How did the IC50 (T47D breast cancer cells) turn out when `CNC1CCCN(c2ccc(Nc3nccc(-c4ccn5ncc(C(C)(C)C)c5c4)n3)nc2)C1=O` (stereo not drawn) [compound 221] was run?
**A.** < 100 nM

**Q.** And the IC50 (CDK2/CyclinE1)?
**A.** > 1000 nM

**Q.** And the IC50 (CDK4/CyclinD1)?
**A.** < 10 nM

**Q.** Which IC50 (T47D breast cancer cells) does the source give for `CC(C)n1cnc2c1CN(c1nc(Nc3ccc(N4CCNCC4=O)cn3)ncc1F)CC2` [compound 238] here?
**A.** 100 to 500 nM

**Q.** What about the IC50 (CDK2/CyclinE1) of the same molecule?
**A.** 10 to 100 nM

**Q.** And the IC50 (CDK4/CyclinD1)?
**A.** < 10 nM

**Q.** What does the source list for `CC(C)n1cnc2c1CN(c1nc(Nc3ccc(N4CCOCC4=O)cn3)ncc1F)CC2` [compound 239]?
**A.** IC50 (T47D breast cancer cells): 100 to 500 nM; IC50 (CDK2/CyclinE1): 10 to 100 nM; IC50 (CDK4/CyclinD1): < 10 nM

**Q.** For `CC(C)n1cnc2c1CN(c1ccnc(Nc3ccc(N4CCCC(N)C4=O)cc3)n1)CC2` (stereo not drawn) [compound 246], which IC50 (T47D breast cancer cells) is on record?
**A.** 500 to 1000 nM

**Q.** And the IC50 (CDK2/CyclinE1)?
**A.** 100 to 1000 nM

**Q.** What about the IC50 (CDK4/CyclinD1) of the same molecule?
**A.** < 10 nM

**Q.** How did the IC50 (T47D breast cancer cells) turn out when `CC(C)n1cnc2c1CN(c1nc(Nc3ccc(N4CCCC(N)C4=O)cc3)ncc1F)CC2` (stereo not drawn) [compound 247] was run?
**A.** < 100 nM

**Q.** What about the IC50 (CDK2/CyclinE1) of the same molecule?
**A.** 10 to 100 nM

**Q.** What about the IC50 (CDK4/CyclinD1) of the same molecule?
**A.** < 10 nM

**Q.** With `CNC1CCCN(c2ccc(Nc3ncc(F)c(N4CCc5ncn(C(C)C)c5C4)n3)cc2)C1=O` (stereo not drawn) [compound 248] as the molecule, how does the IC50 (T47D breast cancer cells) read?
**A.** < 100 nM

**Q.** And the IC50 (CDK2/CyclinE1)?
**A.** 10 to 100 nM

**Q.** What about the IC50 (CDK4/CyclinD1) of the same molecule?
**A.** < 10 nM

**Q.** Which IC50 (T47D breast cancer cells) does the source give for `CC(C)n1cnc2c1CN(c1nc(Nc3ccc(N4CCCC(N(C)C)C4=O)cc3)ncc1F)CC2` (stereo not drawn) [compound 249] here?
**A.** < 100 nM

**Q.** And the IC50 (CDK2/CyclinE1)?
**A.** 10 to 100 nM

**Q.** What about the IC50 (CDK4/CyclinD1) of the same molecule?
**A.** < 10 nM

**Q.** What does the source list for `CC(C)N1CCN(c2ccc(Nc3ncc(F)c(N4CCc5ncn(C(C)C)c5C4)n3)nc2)CC1` [compound 250]?
**A.** IC50 (T47D breast cancer cells): < 100 nM; IC50 (CDK2/CyclinE1): 100 to 1000 nM; IC50 (CDK4/CyclinD1): < 10 nM

**Q.** Which IC50 (T47D breast cancer cells) does the source give for `CC(C)n1cnc2c1CN(c1nc(Nc3ccc(N4CCCC(N(C)C)C4)cc3)ncc1F)CC2` (stereo not drawn) [compound 252] here?
**A.** < 100 nM

**Q.** What about the IC50 (CDK2/CyclinE1) of the same molecule?
**A.** < 10 nM

**Q.** What about the IC50 (CDK4/CyclinD1) of the same molecule?
**A.** < 10 nM

**Q.** Which IC50 (T47D breast cancer cells) does the source give for `CC(C)n1cnc2c1CN(c1nc(Nc3ccc(N4CCCNC4=O)cc3)ncc1F)CC2` [compound 253] here?
**A.** < 100 nM

**Q.** And the IC50 (CDK2/CyclinE1)?
**A.** 10 to 100 nM

**Q.** And the IC50 (CDK4/CyclinD1)?
**A.** < 10 nM

**Q.** What does the source list for `CC(C)n1cnc2c1CN(c1nc(Nc3ccc(N4CCNCC4=O)cc3)ncc1F)CC2` [compound 257]?
**A.** IC50 (T47D breast cancer cells): < 100 nM; IC50 (CDK2/CyclinE1): < 10 nM; IC50 (CDK4/CyclinD1): < 10 nM
